Results from patent US8747910B2, “Prediction of response to platinum-based therapy” (Atlas Antibodies AB, priority 2009, dated 2014).

Experiments:
[1] = test system: A2780 and A2780-Cp70 cells; assay: WST-1 cell viability assay after cisplatin treatment; type: cell-based, human; conditions: A2780-cp70 compared to parental A2780; cisplatin 0-100 μM, 48 h; FIG. 23
Description: The effect of cisplatin on cell viability was determined by the WST-1 assay (Roche Applied Science) according to the manufacturer's recommendation. A2780 and A2780-Cp70 cells were seeded in 96-well plates at the density of 2500 cells/well in 100 μl appropriate medium a day before addition of cisplatin. The cells were treated with cisplatin (0-100 μM) for 48 h. Samples were made in triplicate. Ten microliters WST-1 solution was added per well and cells were incubated at 37° C. for 4 hr. The absorbance of each well was measured using a scanning multiwell spectrophotometer, ELISA reader at the wavelength of 450 nm and reference wavelength of 690 nm.

A2780 cells = assay: Effect of RBM3 knockdown on cisplatin resistance (WST-1 viability); type: cell-based, human; conditions: cisplatin sensitive cells with anti-RBM3 siRNA 50 nM vs non-exposed cells; cisplatin 1-100 μM; FIG. 24
Description: The human ovarian cancer cell line A2780 and the cisplatin-resistant variant A2780 Cp70 were maintained in RPMI-1640 supplemented with glutamine, 10% fetal bovine serum and 1% penicillin/streptomycin in a humidified incubator of 5% CO2 at 37° C. Cisplatin (Sigma) was dissolved in 0.9% NaCl to a stock solution of 1 mg/ml and added to cell cultures to the final concentration (1-100 μM).
Transfection with siRNA against RBM3 (Applied Biosystems, Carlsbad, Calif.) or control siRNA (Applied Biosystems) was performed with Lipofectamine 2000 (Invitrogen, Carlsbad, Calif.) with a final concentration of 50 nM siRNA.
The effect of cisplatin on cell viability was determined by the WST-1 assay as described in Examples, section 12.

[2] = test system: epithelial ovarian cancer; assay: Gene expression analysis of ovarian cancer, recurrence free survival; type: in vivo, human; conditions: patients with tumors of high vs low RBM3 expression level; 210 serous samples; FIG. 19
Source text: Data was collected from a previously performed microarray study, based on a patient cohort of 285 patients diagnosed with epithelial ovarian cancer between 1992 and 2006. Institutional Review Board approval for patient consent had been obtained for all patients.
The median age of patients was 59 years (ranging from 18-79 years). The inventors decided to exclude data from 18 patients who received neoadjuvant therapy, as the inventors realized that this treatment could possibly influence RBM3 mRNA levels, and might thus lead to biased results. Further, data from 40 patients who didn't receive platinum based therapy were removed from the data set. Of these 227 samples, 210 came from patients with serous cancer, 16 with endometroid and 1 with adenocarcinoma. For statistical analysis only serous samples were considered. Pathology evaluation data existed for all patients, and recurrence free survival was evaluated for RBM3 high as well as RBM3 low mRNA content.

N.N.[Cl][Pt][Cl] [cisplatin]
viability after cisplatin treatment [1]: increased viability | viability after cisplatin treatment at low RBM3 protein expression (A2780 cells): increased viability | recurrence free survival [2]: significantly better recurrence free survival
